pIC50: −log10 of the molar value.
What was measured:
Sprague Dawley rats = experiment: Capsaicin induced secondary mechanical hyperalgesia model; assay type: in vivo; settings: po, 1 h; 30 mg/kg p.o., 60 minutes before testing; relative to vehicle; secondary mechanical hyperalgesia 180 minutes after capsaicin; rat
Experimental: (iii) In Vivo Data—Capsaicin Induced Secondary Mechanical Hyperalgesia Model
Sprague Dawley rats were briefly restrained, and capsaicin was administered at 10 μg in 10 μL of vehicle by intraplantar injection into the center of the right hind paw. Secondary mechanical hyperalgesia (SMH) was measured at the heel away from the site of injection 180 minutes following capsaicin exposure. Compounds and gabapentin (positive control), were administered p.o. 60 minutes before testing (2 hours after capsaicin) or i.p. 30 minutes before testing (2.5 hours after capsaicin). SMH was measured using calibrated von Frey filaments (Stoelting, Woodale, Ill.). Following the 1 hour habituation in the testing room, rats were moved to individual plexiglass chambers that sit on top of a wire mesh to allow for access for stimulation of the plantar surface of the hind paws. Rats were allowed to acclimate to the new chambers for 15 minutes before the onset of testing. The paw withdrawal threshold was determined by increasing and decreasing stimulus intensity (force: g) and calculated using Dixon's up-down method (Chaplan, S R; et al. J. Neuroscience Methods 1994; 53: 55-63). The filaments (maximum force of 15.0 g) were held in place for 8 seconds or until there was a withdrawal response from the mechanical stimulation.

Human Cav3.2 = target: T1, Human Cav3.2 (Homo sapiens, UniProt O95180); experiment: Electrophysiologic (whole-cell patch-clamp) assessment of calcium channel activity, HEK293 cells stably expressing hCav3.2; assay type: cell-based; settings: −77 mV, GeoMean
T1 construct: expressed in transfected cells
T1 sequence (O95180 whole entry): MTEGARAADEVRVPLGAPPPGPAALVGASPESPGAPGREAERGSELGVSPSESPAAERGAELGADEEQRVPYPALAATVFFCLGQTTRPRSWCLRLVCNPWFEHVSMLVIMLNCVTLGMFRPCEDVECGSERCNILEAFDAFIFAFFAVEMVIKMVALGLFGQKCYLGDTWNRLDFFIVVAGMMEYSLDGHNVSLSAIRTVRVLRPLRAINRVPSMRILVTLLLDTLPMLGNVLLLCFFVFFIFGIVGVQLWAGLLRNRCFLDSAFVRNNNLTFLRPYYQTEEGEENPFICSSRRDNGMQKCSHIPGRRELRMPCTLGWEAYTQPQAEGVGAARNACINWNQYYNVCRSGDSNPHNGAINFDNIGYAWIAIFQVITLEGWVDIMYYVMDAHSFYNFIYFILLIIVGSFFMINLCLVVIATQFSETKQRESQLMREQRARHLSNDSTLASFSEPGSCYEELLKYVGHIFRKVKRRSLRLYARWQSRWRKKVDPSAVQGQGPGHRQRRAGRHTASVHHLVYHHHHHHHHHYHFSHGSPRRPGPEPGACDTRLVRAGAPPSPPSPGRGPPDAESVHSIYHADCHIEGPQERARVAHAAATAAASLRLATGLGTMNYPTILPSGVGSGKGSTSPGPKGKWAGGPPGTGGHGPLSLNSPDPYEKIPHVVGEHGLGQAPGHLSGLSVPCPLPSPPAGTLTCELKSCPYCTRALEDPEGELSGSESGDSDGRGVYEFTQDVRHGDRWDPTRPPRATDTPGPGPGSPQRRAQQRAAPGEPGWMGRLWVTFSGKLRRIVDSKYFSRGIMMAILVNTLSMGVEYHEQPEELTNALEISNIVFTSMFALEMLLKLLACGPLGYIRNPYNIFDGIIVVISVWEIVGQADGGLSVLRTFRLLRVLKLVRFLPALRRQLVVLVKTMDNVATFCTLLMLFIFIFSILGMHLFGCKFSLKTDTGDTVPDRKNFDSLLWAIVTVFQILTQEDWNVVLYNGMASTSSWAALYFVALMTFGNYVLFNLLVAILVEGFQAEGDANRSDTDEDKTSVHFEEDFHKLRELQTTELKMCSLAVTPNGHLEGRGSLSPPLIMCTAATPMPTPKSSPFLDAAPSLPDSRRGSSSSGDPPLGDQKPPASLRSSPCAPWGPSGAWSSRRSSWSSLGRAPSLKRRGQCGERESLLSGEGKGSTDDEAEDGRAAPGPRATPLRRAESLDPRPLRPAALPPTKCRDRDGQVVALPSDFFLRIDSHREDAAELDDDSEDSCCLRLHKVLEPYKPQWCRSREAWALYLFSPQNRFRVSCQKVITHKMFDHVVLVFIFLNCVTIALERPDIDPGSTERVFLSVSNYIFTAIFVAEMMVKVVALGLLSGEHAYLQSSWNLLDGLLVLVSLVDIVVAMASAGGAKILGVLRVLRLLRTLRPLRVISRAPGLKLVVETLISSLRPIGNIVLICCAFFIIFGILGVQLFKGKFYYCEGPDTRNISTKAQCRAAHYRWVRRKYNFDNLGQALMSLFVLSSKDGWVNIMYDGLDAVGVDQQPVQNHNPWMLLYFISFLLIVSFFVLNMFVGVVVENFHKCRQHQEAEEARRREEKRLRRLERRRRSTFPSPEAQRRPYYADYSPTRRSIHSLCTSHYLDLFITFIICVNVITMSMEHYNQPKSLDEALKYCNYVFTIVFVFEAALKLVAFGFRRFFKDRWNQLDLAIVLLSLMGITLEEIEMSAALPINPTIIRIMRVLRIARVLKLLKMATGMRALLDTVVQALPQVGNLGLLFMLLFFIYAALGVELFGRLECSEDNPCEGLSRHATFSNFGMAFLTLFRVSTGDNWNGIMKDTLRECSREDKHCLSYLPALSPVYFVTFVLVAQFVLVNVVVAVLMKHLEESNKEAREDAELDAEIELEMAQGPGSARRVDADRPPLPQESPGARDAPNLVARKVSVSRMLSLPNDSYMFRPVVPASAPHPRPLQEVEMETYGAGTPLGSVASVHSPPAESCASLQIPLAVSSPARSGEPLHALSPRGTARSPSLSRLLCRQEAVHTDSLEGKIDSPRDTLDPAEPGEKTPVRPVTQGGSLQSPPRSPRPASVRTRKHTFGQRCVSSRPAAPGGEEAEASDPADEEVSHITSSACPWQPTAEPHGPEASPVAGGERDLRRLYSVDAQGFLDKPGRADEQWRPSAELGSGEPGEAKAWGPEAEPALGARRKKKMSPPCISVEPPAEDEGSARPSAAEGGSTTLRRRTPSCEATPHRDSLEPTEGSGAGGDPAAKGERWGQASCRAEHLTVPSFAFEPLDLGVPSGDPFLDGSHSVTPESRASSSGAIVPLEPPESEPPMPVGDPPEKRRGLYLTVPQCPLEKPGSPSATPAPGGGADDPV
Experimental: (ii) In Vitro Methods—Electrophysiologic Assessment of Calcium Channel Activity
Patch-clamp recordings were performed using HEK293 cells stably expressing hCav3.2. Cells were plated in T175 flasks and grown at 37° C. and under 5% CO2 to approximately 50% confluency. On the day of the experiment, cells were harvested with Detachin™ cell detachment solution (Genlantis, San Diego, Calif.) and maintained in serum-free culture medium supplemented with 25 mM HEPES up to several hours prior to experiment. Whole-cell patch-clamp recordings were obtained using extracellular saline consisting of (mM): 87.5 CsCl, 40 TEA-Cl, 5 CaCl2, 1 MgCl2, 10 HEPES, 10 glucose. The pH was adjusted to 7.2 with CsOH and the osmolarity was adjusted to approximately 310 mOsm with sucrose. Intracellular solution consisted of (mM): 112 CsCl, 27 CsF, 2 NaCl, 8.2 EGTA, 10 HEPES. Prior to an experiment 4 mM Mg2ATP was added and the pH was adjusted to 7.2 with CsOH with an osmolarity of approximately 290 mOsm. A two-pulse voltage protocol was utilized to assess compound inhibition. First, cells were held with an 8 second pre-pulse at −100 mV prior to a 160 millisecond test pulse to −30 mV. This was followed by an 8 second pre-pulse at approximately −75 mV prior to a […] test pulse to −30 mV. Increasing concentrations of antagonist were applied to individual cells in a multi-addition format with 5 minutes in each test concentration. For each cell, responses were normalized to dimethyl sulfoxide vehicle control to generate concentration-response curves.

Row | Structure (SMILES) | pIC50 (Human Cav3.2) | inhibition in vivo at 30 mg/kg (Sprague Dawley rats)
1 | O=C(CN1CCCC(c2ccccc2)(c2ccccc2)C1=O)NC1CCNCC1 [Example 1, 2-(2-Oxo-3,3-diphenylpiperidin-1-yl)-N-(piperidin-4-yl)acetamide] | < 5.00 | 
2 | CC1(C)C(=O)NCCN1C(=O)CN1CCCC(c2ccccc2)(c2ccccc2)C1=O [Example 2, 3,3-Dimethyl-4-[(2-oxo-3,3-diphenylpiperidin-1-yl)acetyl]piperazin-2-one] | 5.56 | 
3 | O=C(CN1CCCC(c2ccccc2)(c2ccccc2)C1=O)N1C[C@@H]2CCCN[C@@H]2C1 [Example 3, 1-{2-[(4aS,7aS)-Octahydro-6H-pyrrolo[3,4-b]pyridin-6-yl]-2-oxoethyl}-3,3-diphenylpiperidin-2-one] | 5.36 | 31%
4 | O=C(CN1CCCC(c2ccccc2)(c2ccccc2)C1=O)N1C[C@H]2CCCN[C@H]2C1 [Example 4, 1-{2-[(4aR,7aR)-Octahydro-6H-pyrrolo[3,4-b]pyridin-6-yl]-2-oxoethyl}-3,3-diphenylpiperidin-2-one] | < 5.00 | 19%
5 | O=C(CN1CCCC(c2ccccc2)(c2ccccc2)C1=O)N1CCC[C@H]2CNC[C@H]21 [Example 5, 1-{2-[(4aS,7aS)-Octahydro-1H-pyrrolo[3,4-b]pyridin-1-yl]-2-oxoethyl}-3,3-diphenylpiperidin-2-one] | 5.80 | 
6 | O=C(CN1CCCC(c2ccccc2)(c2ccccc2)C1=O)N1CC2CNCC2C1 (stereo not shown) [Example 6, 1-(2-Hexahydropyrrolo[3,4-c]pyrrol-2(1H)-yl-2-oxoethyl)-3,3-diphenylpiperidin-2-one] | 5.27 | 74%
7 | O=C(CN1CCCC(c2ccccc2)(c2ccccc2)C1=O)N1CC2(CCNCC2)C1 [Example 7, 1-[2-(2,7-Diazaspiro[3.5]non-2-yl)-2-oxoethyl]-3,3-diphenylpiperidin-2-one] | 5.24 | 19%
8 | O=C(CN1CCCC(c2ccccc2)(c2ccccc2)C1=O)NC[C@H]1CCCN1 [Example 8, 2-(2-Oxo-3,3-diphenylpiperidin-1-yl)-N-[(2R)-pyrrolidin-2-ylmethyl]acetamide] | < 5.00 | 
9 | O=C(CN1CCCC(c2ccc(F)cc2)(c2ccc(F)cc2)C1=O)N1CCNCC1 [Example 23, 3,3-Bis(4-fluorophenyl)-1-(2-oxo-2-piperazin-1-ylethyl)piperidin-2-one] |  | -2%
10 | O=C(CN1CCC(c2ccccc2)(c2ccccc2)C1=O)N1CCNCC1 [Example 24, 1-(2-Oxo-2-piperazin-1-ylethyl)-3,3-diphenylpyrrolidin-2-one] |  | 52%

Further lines, with some results ahead:

Row | pIC50 (Human Cav3.2) | Structure (SMILES) | inhibition in vivo at 30 mg/kg (Sprague Dawley rats)
11 | 5.44 | O=C(CN1CCCC(c2ccccc2)(c2ccccc2)C1=O)N1C[C@@H]2CN[C@@H](C2)C1 (relative stereo) [Example 13, 1-{2-[(1S*,5S*)-3,6-Diazabicyclo[3.2.1]oct-3-yl]-2-oxoethyl}-3,3-diphenylpiperidin-2-one] | 60%
12 | 5.23 | O=C(CN1CCCC(c2ccccc2)(c2ccccc2)C1=O)NC[C@@H]1CCCN1 [Example 9, 2-(2-Oxo-3,3-diphenylpiperidin-1-yl)-N-[(2S)-pyrrolidin-2-ylmethyl]acetamide] | 
13 | < 5.00 | O=C1CN(C(=O)CN2CCCC(c3ccccc3)(c3ccccc3)C2=O)CCN1 [Example 10, 4-[(2-Oxo-3,3-diphenylpiperidin-1-yl)acetyl]piperazin-2-one] | 
14 | 6.25 | O=C(CN1CCCC(c2ccccc2)(c2ccccc2)C1=O)NC1CNC1 [Example 11, N-Azetidin-3-yl-2-(2-oxo-3,3-diphenylpiperidin-1-yl)acetamide] | 
15 | < 5.00 | O=C(CN1CCCC(c2ccccc2)(c2ccccc2)C1=O)N1CCNCC1 [Example 12, 1-(2-Oxo-2-piperazin-1-ylethyl)-3,3-diphenylpiperidin-2-one] | 41%
16 | 5.11 | O=C(CN1CCC(c2ccc(F)cc2)(c2ccc(F)cc2)C1=O)N1CCNCC1 [Example 14, 3,3-Bis(4-fluorophenyl)-1-(2-oxo-2-piperazin-1-ylethyl)pyrrolidin-2-one] | 52%
17 | 5.67 | O=C(CN1CCC(c2ccc(F)cc2)(c2ccc(F)cc2)C1=O)N1CCN2CCC[C@@H]2C1 [Example 15, 3,3-Bis(4-fluorophenyl)-1-{2-[(8aR)-hexahydropyrrolo[1,2-a]pyrazin-2(1H)-yl]-2-oxoethyl}pyrrolidin-2-one] | 
18 | 6.09 | O=C(CN1CCC(c2ccc(F)cc2)(c2ccc(F)cc2)C1=O)NC1CNC1 [Example 16, N-Azetidin-3-yl-2-[3,3-bis(4-fluorophenyl)-2-oxopyrrolidin-1-yl]acetamide] | 
19 | 5.39 | O=C(CN1CCC(c2ccc(F)cc2)(c2ccc(F)cc2)C1=O)N(C1CCNCC1)C1CC1 [Example 17, 2-[3,3-Bis(4-fluorophenyl)-2-oxopyrrolidin-1-yl]-N-cyclopropyl-N-piperidin-4-ylacetamide] | 
20 | 5.04 | O=C(CN1CCC(c2ccc(F)cc2)(c2ccc(F)cc2)C1=O)N(C1CCC1)C1CCNCC1 [Example 18, 2-[3,3-Bis(4-fluorophenyl)-2-oxopyrrolidin-1-yl]-N-cyclobutyl-N-piperidin-4-ylacetamide] | 5%
21 | 5.96 | O=C(CN1CCC(c2ccc(F)cc2)(c2ccc(F)cc2)C1=O)N(C1CCCC1)C1CCNCC1 [Example 19, 2-[3,3-Bis(4-fluorophenyl)-2-oxopyrrolidin-1-yl]-N-cyclopentyl-N-piperidin-4-ylacetamide] | 
22 | 6.00 | O=C(CN1CCC(c2ccccc2)(c2ccccc2)C1=O)N1CCN(C2CCCCC2)CC1 [Example 21, 1-[2-(4-Cyclohexylpiperazin-1-yl)-2-oxoethyl]-3,3-diphenylpyrrolidin-2-one] | 
23 | < 5.00 | CN1CCN(C(=O)CN2CCCC(c3ccccc3)(c3ccccc3)C2=O)CC1 [Example 22, 1-[2-(4-Methylpiperazin-1-yl)-2-oxoethyl]-3,3-diphenylpiperidin-2-one] | 

Reference: patent US8815869B2, “Lactam acetamides as calcium channel blockers” (AbbVie Inc., priority 2010, dated 2014)
